TGI and GI50 data for ten compounds are collected here from PubChem BioAssay (NCI).

Some test systems named below: EKVX NSCLC; HCT-15 colon; K-562 leukemia; HCT-116 colon; OVCAR-5 ovarian; SF-539 CNS; NCI-H522 lung; SF-268 CNS; OVCAR-4 ovarian; HL-60(TB) leukemia.
Holding throughout (experiment): NCI-60 cell line screen, 48 h

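Dose response: 5 concentrations. Exposure: 48 h. Format: 96-well plates. Endpoint: linear interpolation; highest concentration if not reached. Abbreviation: GI50, concentration required for 50% inhibition of growth. The concentration for full growth arrest is given as TGI.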

With `CC(=O)N/C(=C\c1ccc(/C=C(\NC(C)=O)c2nc3ccc(Cl)cc3[nH]2)cc1)c1nc2ccccc2[nH]1`, the TGI with EKVX NSCLC, in the assay with HCT-15 colon, with K-562 leukemia, in the assay with HCT-116 colon, with OVCAR-5 ovarian and in the assay with SF-539 CNS was more than 100 µM in each case. For the same compound, the TGI with NCI-H522 lung and in the assay on SF-268 CNS was more than 100 µM throughout.
For `COc1cc(-c2nc3ccc(C)cc3[nH]2)ccc1OCC(=O)N=Nc1c(O)[nH]c2ccccc12`, the GI50 is 12.7 µM in the assay on EKVX NSCLC; 4.18 µM in the assay on HCT-15 colon; 0.442 µM with HCT-116 colon; 1.83 µM in the assay on OVCAR-5 ovarian; 1.62 µM with SF-539 CNS; 1.75 µM in the assay on OVCAR-4 ovarian. For the same compound, the TGI in the assay with EKVX NSCLC was more than 100 µM; in the assay on HCT-15 colon it was more than 100 µM; in the assay with HCT-116 colon, 1.66 µM; in the assay on OVCAR-5 ovarian, 4.19 µM; in the assay with SF-539 CNS, 3.01 µM; in the assay with OVCAR-4 ovarian, 3.25 µM.
Turning to `Cc1c(CCCl)c(=O)n2c([nH]c3ccccc32)c1C#N`, the TGI in the assay with EKVX NSCLC is 3.65 µM; in the assay with HCT-15 colon, 2.93 µM; in the assay on HL-60(TB) leukemia, more than 10 µM; in the assay on K-562 leukemia it was more than 10 µM; in the assay with HCT-116 colon it was 1.93 µM; with OVCAR-5 ovarian, 4.43 µM. Further, the TGI in the assay with SF-539 CNS came out at 2.79 µM; in the assay on SF-268 CNS, 4.41 µM; with OVCAR-4 ovarian it was 3.16 µM.
In the case of `CC[N+](CCCCCCCCCC[N+](CC)(c1ccccn1)c1ccccn1)(c1ccccn1)c1ccccn1`, the GI50 in the assay with HCT-15 colon was 3.2 µM; in the assay on HL-60(TB) leukemia, 0.554 µM; in the assay with K-562 leukemia, 0.49 µM; with HCT-116 colon, 0.851 µM; in the assay with OVCAR-5 ovarian, 1.86 µM; in the assay on SF-539 CNS, 1.72 µM. The GI50 in the assay on SF-268 CNS was 1.02 µM; in the assay on OVCAR-4 ovarian it was 1.01 µM. Besides, the TGI is 18.8 µM in the assay on HCT-15 colon; 2.93 µM in the assay on HL-60(TB) leukemia; 16 µM with K-562 leukemia; more than 100 µM in the assay with HCT-116 colon; 9.65 µM in the assay on OVCAR-5 ovarian; 14.1 µM with SF-539 CNS. For the same compound, the TGI with SF-268 CNS is 19.5 µM; with OVCAR-4 ovarian, more than 100 µM.
In the case of `CC1(C)C=CC[C@]2(C)[C@H]3CC[C@@H]4[C@H]5[C@H](C(=O)/C=C/c6cccnc6)CC[C@]5(CO)CC[C@@]4(C)[C@]3(C)CC[C@@H]12`, the GI50 in the assay with HL-60(TB) leukemia was 0.304 µM; in the assay with HCT-116 colon, 1.05 µM; in the assay on OVCAR-5 ovarian, 1.32 µM; in the assay with SF-539 CNS it was 1.5 µM; with NCI-H522 lung it was 1.19 µM; in the assay on OVCAR-4 ovarian, 1.47 µM. Moreover, the TGI is 1.89 µM with HL-60(TB) leukemia; 2.32 µM in the assay with HCT-116 colon; 2.83 µM in the assay on OVCAR-5 ovarian; 2.87 µM in the assay with SF-539 CNS; 2.74 µM with NCI-H522 lung; 3.41 µM in the assay with OVCAR-4 ovarian.
As for `CC(=O)NC(CCCCNC(=O)OCc1ccccc1)C(=O)NCc1ccccc1` (centres undefined), the TGI with EKVX NSCLC, in the assay on HCT-15 colon, with K-562 leukemia, in the assay on HCT-116 colon, with OVCAR-5 ovarian and in the assay on SF-539 CNS was more than 100 µM each time. The TGI in the assay with NCI-H522 lung, in the assay with SF-268 CNS and in the assay on OVCAR-4 ovarian was more than 100 µM each time.
As for `Cc1cc(/C=C2\SC(=Nc3ccccc3)N(C3CCCC3)C2=O)c(C)n1-c1ccc(Cl)cc1`, the GI50 in the assay on HCT-15 colon, in the assay on HL-60(TB) leukemia, in the assay with K-562 leukemia, in the assay with HCT-116 colon, in the assay with OVCAR-5 ovarian and in the assay with SF-539 CNS was more than 100 µM in each case. The GI50 with NCI-H522 lung, with SF-268 CNS and in the assay on OVCAR-4 ovarian was more than 100 µM each time. Besides, the TGI in the assay on HCT-15 colon, in the assay on HL-60(TB) leukemia, in the assay on K-562 leukemia, in the assay with HCT-116 colon, with OVCAR-5 ovarian and with SF-539 CNS was more than 100 µM in each case. In addition, the TGI in the assay with NCI-H522 lung, in the assay on SF-268 CNS and in the assay on OVCAR-4 ovarian was more than 100 µM in each case.
For `Oc1ccc(Br)cc1Sc1cc(Br)ccc1O`, the GI50 in the assay on HCT-15 colon is 5.93 µM; with HL-60(TB) leukemia it was 4.98 µM; with K-562 leukemia, 5.12 µM; in the assay with HCT-116 colon, 6 µM; in the assay on OVCAR-5 ovarian, 15.8 µM; in the assay with SF-539 CNS, 4.66 µM. The figures for the GI50 in the assay on NCI-H522 lung, in the assay on SF-268 CNS and with OVCAR-4 ovarian were 2.69 µM, 7.68 µM and 4.72 µM, respectively. The TGI stood at 22 µM with HCT-15 colon; 25 µM with HL-60(TB) leukemia; 32 µM with K-562 leukemia; 24.3 µM with HCT-116 colon; 32.1 µM with OVCAR-5 ovarian; 18.7 µM in the assay on SF-539 CNS. Also, the TGI in the assay with NCI-H522 lung stood at 8.46 µM; in the assay on SF-268 CNS, 26.7 µM; in the assay on OVCAR-4 ovarian, 18.1 µM.
As for `Cc1ccc(C(=O)c2oc3ccc4c(C)cc(=O)oc4c3c2C)cc1`, the GI50 in the assay on HCT-15 colon is 0.585 µM; in the assay on HL-60(TB) leukemia, 13.4 µM; with K-562 leukemia it was 5.53 µM; in the assay on HCT-116 colon, 43.8 µM; in the assay on OVCAR-5 ovarian, 11.2 µM; with SF-539 CNS it was 1.41 µM. Besides, the GI50 in the assay with NCI-H522 lung is 9.12 µM; in the assay with SF-268 CNS, 10.4 µM; in the assay with OVCAR-4 ovarian it was 23.6 µM. Further, the TGI was more than 100 µM in the assay with HCT-15 colon; more than 100 µM in the assay on HL-60(TB) leukemia; more than 100 µM with K-562 leukemia; more than 100 µM in the assay with HCT-116 colon; more than 100 µM in the assay with OVCAR-5 ovarian; 20.1 µM with SF-539 CNS. The TGI in the assay with NCI-H522 lung stood at 55.2 µM; in the assay on SF-268 CNS, 98.8 µM; in the assay on OVCAR-4 ovarian it was 75.5 µM.
With `O=c1cc(-c2ccccc2)[nH]c2cccc(S)c12`, the TGI with EKVX NSCLC, in the assay with HCT-15 colon, in the assay with HL-60(TB) leukemia, in the assay with K-562 leukemia, in the assay with HCT-116 colon and with OVCAR-5 ovarian was more than 100 µM throughout. Further, the TGI in the assay with SF-539 CNS is 0.594 µM; in the assay on SF-268 CNS, more than 100 µM; in the assay with OVCAR-4 ovarian it was more than 100 µM.
